Results taken from US4245106A, “Process for the preparation of 1-alkyl-3-aryl-4-pyrazolecarboxylates” (Monsanto Company, priority 1979, dated 1981).

Assays:
Assay type in all cases: in vivo
Canada Thistle [1] = assay: post-emergent herbicidal activity test
Procedure: (§1) The post-emergent tests were conducted as follows. The active ingredients are applied in spray form to two or three-week old specimens of various plant species. The spray, a solution or wettable powder suspension containing the appropriate rate of active ingredient to give the desired test rate and a surfactant, is applied to the plants. The treated plants are placed in a greenhouse and unless otherwise noted approximately four weeks later the effects are observed and recorded.

Smartweed [2] = assay: post-emergent herbicidal activity test
Procedure: as §1

Cocklebur [3] = assay: post-emergent herbicidal activity test
Procedure: as §1

Morningglory [4] = assay: post-emergent herbicidal activity test
Procedure: as §1

Barnyard grass [5] = assay: post-emergent herbicidal activity test
Procedure: as §1

Nutsedge [6] = assay: post-emergent herbicidal activity test
Procedure: as §1

Quackgrass [7] = assay: post-emergent herbicidal activity test
Procedure: as §1

Johnsongrass [8] = assay: post-emergent herbicidal activity test
Procedure: as §1

Velvetleaf [9] = assay: post-emergent herbicidal activity test
Procedure: as §1

Bromus tectorum [10] = assay: post-emergent herbicidal activity test
Procedure: as §1

Lambsquarter [11] = assay: post-emergent herbicidal activity test
Procedure: as §1

Canada Thistle [12] = assay: pre-emergent herbicidal activity test
Procedure: (§2) Table II summarizes results of tests conducted to determine the pre-emergent as well as the post-emergent herbicidal activity of the compounds. The pre-emergent test was conducted as follows:
(§3) A good grade of top soil was placed in aluminum pans and compacted to a depth of three-eighths to one-half inch from the top of the pan. On the top of the soil was placed a predetermined number of seeds or vegetative propagules of various plant species. The soil required to level fill the pans after seeding or adding vegetative propagules was weighed into a pan. A known amount of the active ingredient applied in a solvent or as a wettable powder and the soil were thoroughly mixed, and used as a cover layer for prepared pans. After treatment the pans were moved into a greenhouse bench where they were watered from below as needed to give adequate moisture for germination and growth.
(§4) A herbicial rating code was used to signify the extent of phytotoxicity of each species. The rating are defined as follows: […]

Smartweed [13] = assay: pre-emergent herbicidal activity test
Procedure: as §2, §3, §4

Cocklebur [14] = assay: pre-emergent herbicidal activity test
Procedure: as §2, §3, §4

Morningglory [15] = assay: pre-emergent herbicidal activity test
Procedure: as §2, §3, §4

Barnyard grass [16] = assay: pre-emergent herbicidal activity test
Procedure: as §2, §3, §4

Nutsedge [17] = assay: pre-emergent herbicidal activity test
Procedure: as §2, §3, §4

Quackgrass [18] = assay: pre-emergent herbicidal activity test
Procedure: as §2, §3, §4

Johnsongrass [19] = assay: pre-emergent herbicidal activity test
Procedure: as §2, §3, §4

Velvetleaf [20] = assay: pre-emergent herbicidal activity test
Procedure: as §2, §3, §4

Bromus tectorum [21] = assay: pre-emergent herbicidal activity test
Procedure: as §2, §3, §4

Lambsquarter [22] = assay: pre-emergent herbicidal activity test
Procedure: as §2, §3, §4

[23] = 11.2 Kg/Ha, approximately four weeks later
[24] = *11.2 Kg/Ha, observed approximately 14 days after treatment
[25] = 11.2 Kg/Ha, approximately 28 days after seeding and treating
Further: ranges in brackets are in %.

## CCOC(=O)c1cn(C)nc1-c1cccc(C(F)(F)F)c1 [Example 12]
Canada Thistle [1]; [23]
  Post-Emergent herbicidal rating, A Canada Thistle: 1 (25-49)
Canada Thistle [1]; [24]
  Post-Emergent herbicidal rating, A Canada Thistle: 1 (25-49)
Smartweed [2]; [23]
  Post-Emergent herbicidal rating, F Smartweed: 1 (25-49)
Smartweed [2]; [24]
  Post-Emergent herbicidal rating, F Smartweed: 0 (0-24)
Cocklebur [3]; [23]
  Post-Emergent herbicidal rating, B Cocklebur: 1 (25-49)
Cocklebur [3]; [24]
  Post-Emergent herbicidal rating, B Cocklebur: 1 (25-49)
Morningglory [4]; [23]
  Post-Emergent herbicidal rating, D Morningglory: 2 (50-74)
Morningglory [4]; [24]
  Post-Emergent herbicidal rating, D Morningglory: 3 (75-99)
Barnyard grass [5]; [23]
  Post-Emergent herbicidal rating, K Barnyard grass: 0 (0-24)
Barnyard grass [5]; [24]
  Post-Emergent herbicidal rating, K Barnyard grass: 1 (25-49)
Nutsedge [6]; [23]
  Post-Emergent herbicidal rating, G Nutsedge: 0 (0-24)
Nutsedge [6]; [24]
  Post-Emergent herbicidal rating, G Nutsedge: 0 (0-24)
Quackgrass [7]; [23]
  Post-Emergent herbicidal rating, H Quackgrass: 0 (0-24)
Quackgrass [7]; [24]
  Post-Emergent herbicidal rating, H Quackgrass: 0 (0-24)
Johnsongrass [8]; [23]
  Post-Emergent herbicidal rating, I Johnsongrass: 0 (0-24)
Johnsongrass [8]; [24]
  Post-Emergent herbicidal rating, I Johnsongrass: 0 (0-24)
Velvetleaf [9]; [23]
  Post-Emergent herbicidal rating, C Velvetleaf: 1 (25-49)
Velvetleaf [9]; [24]
  Post-Emergent herbicidal rating, C Velvetleaf: 1 (25-49)
Bromus tectorum [10]; [23]
  Post-Emergent herbicidal rating, J Bromus tectorum: 0 (0-24)
Bromus tectorum [10]; [24]
  Post-Emergent herbicidal rating, J Bromus tectorum: 0 (0-24)
Lambsquarter [11]; [23]
  Post-Emergent herbicidal rating, E Lambsquarter: 1 (25-49)
Lambsquarter [11]; [24]
  Post-Emergent herbicidal rating, E Lambsquarter: 2 (50-74)
Canada Thistle [12]; [25]
  Pre-Emergent herbicidal rating, A Canada Thistle: 0 (0-24)
Canada Thistle [12]; [24]
  Pre-Emergent herbicidal rating, A Canada Thistle: 2 (50-74)
Smartweed [13]; [25]
  Pre-Emergent herbicidal rating, F Smartweed: 3 (75-100)
Smartweed [13]; [24]
  Pre-Emergent herbicidal rating, F Smartweed: 3 (75-100)
Cocklebur [14]; [25]
  Pre-Emergent herbicidal rating, B Cocklebur: 0 (0-24)
Cocklebur [14]; [24]
  Pre-Emergent herbicidal rating, B Cocklebur: 0 (0-24)
Morningglory [15]; [25]
  Pre-Emergent herbicidal rating, D Morningglory: 3 (75-100)
Morningglory [15]; [24]
  Pre-Emergent herbicidal rating, D Morningglory: 3 (75-100)
Barnyard grass [16]; [25]
  Pre-Emergent herbicidal rating, K Barnyard grass: 3 (75-100)
Barnyard grass [16]; [24]
  Pre-Emergent herbicidal rating, K Barnyard grass: 3 (75-100)
Nutsedge [17]; [25]
  Pre-Emergent herbicidal rating, G Nutsedge: 0 (0-24)
Nutsedge [17]; [24]
  Pre-Emergent herbicidal rating, G Nutsedge: 0 (0-24)
Quackgrass [18]; [25]
  Pre-Emergent herbicidal rating, H Quackgrass: 0 (0-24)
Quackgrass [18]; [24]
  Pre-Emergent herbicidal rating, H Quackgrass: 0 (0-24)
Johnsongrass [19]; [25]
  Pre-Emergent herbicidal rating, I Johnsongrass: 0 (0-24)
Johnsongrass [19]; [24]
  Pre-Emergent herbicidal rating, I Johnsongrass: 0 (0-24)
Velvetleaf [20]; [25]
  Pre-Emergent herbicidal rating, C Velvetleaf: 3 (75-100)
Velvetleaf [20]; [24]
  Pre-Emergent herbicidal rating, C Velvetleaf: 3 (75-100)
Bromus tectorum [21]; [25]
  Pre-Emergent herbicidal rating, J Bromus tectorum: 1 (25-49)
Bromus tectorum [21]; [24]
  Pre-Emergent herbicidal rating, J Bromus tectorum: 2 (50-74)
Lambsquarter [22]; [25]
  Pre-Emergent herbicidal rating, E Lambsquarter: 3 (75-100)
Lambsquarter [22]; [24]
  Pre-Emergent herbicidal rating, E Lambsquarter: 3 (75-100)

## CCOC(=O)c1cn(C)nc1-c1ccc(C(F)(F)F)cc1 [Example 17]
Canada Thistle [1]; [23]
  Post-Emergent herbicidal rating, A Canada Thistle: 1 (25-49)
Smartweed [2]; [23]
  Post-Emergent herbicidal rating, F Smartweed: 0 (0-24)
Cocklebur [3]; [23]
  Post-Emergent herbicidal rating, B Cocklebur: 0 (0-24)
Morningglory [4]; [23]
  Post-Emergent herbicidal rating, D Morningglory: 0 (0-24)
Barnyard grass [5]; [23]
  Post-Emergent herbicidal rating, K Barnyard grass: 0 (0-24)
Nutsedge [6]; [23]
  Post-Emergent herbicidal rating, G Nutsedge: 0 (0-24)
Quackgrass [7]; [23]
  Post-Emergent herbicidal rating, H Quackgrass: 0 (0-24)
Johnsongrass [8]; [23]
  Post-Emergent herbicidal rating, I Johnsongrass: 0 (0-24)
Velvetleaf [9]; [23]
  Post-Emergent herbicidal rating, C Velvetleaf: 0 (0-24)
Bromus tectorum [10]; [23]
  Post-Emergent herbicidal rating, J Bromus tectorum: 0 (0-24)
Lambsquarter [11]; [23]
  Post-Emergent herbicidal rating, E Lambsquarter: 0 (0-24)
Canada Thistle [12]; [25]
  Pre-Emergent herbicidal rating, A Canada Thistle: 0 (0-24)
Smartweed [13]; [25]
  Pre-Emergent herbicidal rating, F Smartweed: 2 (50-74)
Cocklebur [14]; [25]
  Pre-Emergent herbicidal rating, B Cocklebur: 0 (0-24)
Morningglory [15]; [25]
  Pre-Emergent herbicidal rating, D Morningglory: 0 (0-24)
Barnyard grass [16]; [25]
  Pre-Emergent herbicidal rating, K Barnyard grass: 2 (50-74)
Nutsedge [17]; [25]
  Pre-Emergent herbicidal rating, G Nutsedge: 1 (25-49)
Quackgrass [18]; [25]
  Pre-Emergent herbicidal rating, H Quackgrass: 0 (0-24)
Johnsongrass [19]; [25]
  Pre-Emergent herbicidal rating, I Johnsongrass: 0 (0-24)
Velvetleaf [20]; [25]
  Pre-Emergent herbicidal rating, C Velvetleaf: 0 (0-24)
Bromus tectorum [21]; [25]
  Pre-Emergent herbicidal rating, J Bromus tectorum: 1 (25-49)
Lambsquarter [22]; [25]
  Pre-Emergent herbicidal rating, E Lambsquarter: 3 (75-100)
